Consider 15 compounds from patent US20060069110A1, “Substituted heterocyclic compounds and methods of use” (priority 2004, published 2006).

This experiment concerns THP1 cells (LPS induced TNF release). The experiment can be described thus: Lipopolysaccharide-Activated THP1 Cell TNF Production Assay. It counts as cell-based. As to conditions: Homo sapiens, THP-1; THP1 cells, bacterial LPS, secreted TNF-α after 3 h at 37° C.; read-out: IC50 values in the THP1 cell assay (LPS induced TNF release). The gist of the method:
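THP1 cells at 1E6/mL were treated with 3-fold serial compound dilutions and LPS (1 μg/mL stock) for 3 h at 37 °C. Secreted TNF-α was quantified by electrochemiluminescent sandwich immunoassay. Percent of DMSO control versus concentration was fitted to a 4-parameter equation.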
For `CN(c1ccnc(NC2CCN(C(=O)CN)CC2)n1)c1ccnc(-c2ccccc2)n1` [Example 43, 2-Amino-1-(4-(4-(methyl(2-phenylpyrimidin-4-yl)amino)pyrimidin-2-ylamino)-piperidin-1-yl)ethanone], the IC50 was not above 20 µM.
With `CN(c1ccnc(NC(C)(C)CNC(=O)OC(C)(C)C)n1)c1ccnc(-c2ccccc2)n1` [Example 26, tert-Butyl 2-methyl-2-(4-(methyl(2-phenylpyrimidin-4-yl)amino)pyrimidin-2-yl-amino)propylcarbamate] the figure was not above 20 µM; with `Cc1ccccc1-c1nccc(N(C)c2ccnc(NCCc3cccnc3)n2)n1` [Example 105, N^4-Methyl-N^2-(2-(pyridin-3-yl)ethyl)-N^4-(2-o-tolylpyrimidin-4-yl)pyrimidine-2,4-diamine], not above 20 µM.
Next, `CC(Cc1cccc(CN)c1)Nc1nccc(N(C)c2cccc(-c3cccc(F)c3)n2)n1` (stereo not drawn) [Example 157, N^2-(1-(3-(Aminomethyl)phenyl)propan-2-yl)-N^4-(6-(3-fluorophenyl)pyridin-2-yl)-N^4-methylpyrimidine-2,4-diamine]: not above 20 µM.
With `CN(c1ccnc(NCC(c2cccnc2)N(C)C)n1)c1ccnc(-c2ccccc2)n1` (stereo not drawn) [Example 109, N^2-(2-(Dimethylamino)-2-(pyridin-3-yl)ethyl)-N^4-methyl-N^4-(2-phenylpyrimidin-4-yl)pyrimidine-2,4-diamine] the figure was not above 20 µM.
For `C[C@@H](Cc1cccc(CN)c1)Nc1nccc(N(C)c2c[nH]c(=O)c(-c3ccccc3F)c2)n1` [Example 169], the IC50 is not above 20 µM.
Next, `CN(c1ccnc(N[C@@H](CCO)c2ccccc2)n1)c1ccnc(-c2ccccc2)n1` [Example 30, (S)-3-(4-(Methyl(2-phenylpyrimidin-4-yl)amino)pyrimidin-2-ylamino)-3-phenylpropan-1-ol]: not above 20 µM; `CN(c1cccc(-c2ccc(F)c(F)c2)n1)c1ccnc(NCCc2ccccc2)n1` [Example 144, N^4-(6-(3,4-Difluorophenyl)pyridin-2-yl)-N^4-methyl-N^2-phenethylpyrimidine-2,4-diamine]: not above 20 µM.
With `CN(c1ccnc(N[C@@H](CCNC2CC2)Cc2ccccc2)n1)c1ccnc(-c2ccccc2)n1` [Example 59, (R)-N^2-(4-(Cyclopropylamino)-1-phenylbutan-2-yl)-N^4-methyl-N^4-(2-phenyl-pyrimidin-4-yl)pyrimidine-2,4-diamine] the figure was not above 20 µM.
With `Clc1nnc(Nc2ccnc(N3CCCC3Cc3ccccc3)n2)cc1-c1ccccc1` (stereo not drawn) [Example 182, N-(2-(2-Benzylpyrrolidin-1-yl)pyrimidin-4-yl)-6-chloro-5-phenylpyridazin-3-amine] the figure was not above 20 µM; with `C[C@H](N)C(=O)N[C@H]1CC[C@H](Nc2nccc(N(C)c3ccnc(-c4ccccc4)n3)n2)CC1` [Example 25, (S)-2-Amino-N-(4-(4-(methyl(2-phenylpyrimidin-4-yl)amino)pyrimidin-2-ylamino)cyclohexyl)propanamide], not above 20 µM.
Turning to `Cc1ccccc1-c1cccc(N(C)c2ccnc(NCCc3ccccc3)n2)n1` [Example 139, N^4-Methyl-N^2-phenethyl-N^4-(6-o-tolylpyridin-2-yl)-pyrimidine-2,4-diamine], the IC50 is not above 20 µM.
With `C[C@H](N)C1CCCC(CCNc2nccc(N(C)c3ccnc(-c4ccccc4)n3)n2)C1` (stereo partly drawn) [Example 12, N^2-(2-(3-((S)-1-Aminoethyl)cyclohexyl)ethyl)-N^4-methyl-N^4-(2-phenylpyrimidin-4-yl)pyrimidine-2,4-diamine] the figure was not above 20 µM; with `CN(c1ccnc(NCCc2ccccc2Cl)n1)c1nccc(C(C)(C)C)n1` [Example 55, N^2-(2-Chlorophenethyl)-N^4-(4-tert-butylpyrimidin-2-yl)-N^4-methylpyrimidine-2,4-diamine], not above 20 µM.
Next, `C[C@H](Nc1nccc(N(C)c2ccnc(-c3ccccc3)n2)n1)c1ccc(CCN)cc1` [Example 3, (S)-N^2-(1-(4-(2-Aminoethyl)phenyl)ethyl)-N^4-methyl-N^4-(2-phenylpyrimidin-4-yl)pyrimidine-2,4-diamine]: not above 20 µM.

By IC50 is commonly meant the concentration at which inhibition is half-maximal.
